Assay results: ChEMBL document CHEMBL1135674, “A new series of estrogen receptor modulators that display selectivity for estrogen receptor beta” (J Med Chem, 2002)
Calls of active or inactive are those of the source. No cut-off for these calls is given here.

Assays:
Estrogen receptor [1] = molecular target: T1, Estrogen receptor (Homo sapiens, UniProt P03372)
T1 sequence (P03372 whole entry): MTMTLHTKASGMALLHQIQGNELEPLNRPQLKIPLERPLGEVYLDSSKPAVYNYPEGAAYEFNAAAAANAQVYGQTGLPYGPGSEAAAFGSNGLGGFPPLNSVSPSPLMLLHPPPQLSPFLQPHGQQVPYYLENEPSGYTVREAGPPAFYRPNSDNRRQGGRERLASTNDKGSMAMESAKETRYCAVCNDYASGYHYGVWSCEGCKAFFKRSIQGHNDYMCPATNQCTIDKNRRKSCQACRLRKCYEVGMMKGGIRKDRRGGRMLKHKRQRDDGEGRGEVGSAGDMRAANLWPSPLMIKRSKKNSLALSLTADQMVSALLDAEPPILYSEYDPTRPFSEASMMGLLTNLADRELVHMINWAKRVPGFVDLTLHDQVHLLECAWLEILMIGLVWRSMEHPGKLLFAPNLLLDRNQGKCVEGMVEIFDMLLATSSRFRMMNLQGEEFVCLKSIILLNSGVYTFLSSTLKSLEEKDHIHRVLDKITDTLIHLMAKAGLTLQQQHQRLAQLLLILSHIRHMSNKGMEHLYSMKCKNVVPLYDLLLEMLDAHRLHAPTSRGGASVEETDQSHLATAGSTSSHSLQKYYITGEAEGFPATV

Estrogen receptor beta [2] = molecular target: T2, Estrogen receptor beta (Homo sapiens, UniProt Q92731)
Estrogen receptor [3] = molecular target: T1, Estrogen receptor; remark: listed apart in the source
Estrogen receptor [4] = molecular target: T1, Estrogen receptor; remark: listed apart in the source
Estrogen receptor beta [5] = molecular target: T2, Estrogen receptor beta; settings: T47D
Estrogen receptor beta [6] = molecular target: T2, Estrogen receptor beta; remark: listed apart in the source
Estrogen receptor beta [7] = molecular target: T2, Estrogen receptor beta; settings: T47D; remark: listed apart in the source
Estrogen receptor beta [8] = molecular target: T2, Estrogen receptor beta; settings: T47D, 10e-4 M

T2 sequence (Q92731 whole entry): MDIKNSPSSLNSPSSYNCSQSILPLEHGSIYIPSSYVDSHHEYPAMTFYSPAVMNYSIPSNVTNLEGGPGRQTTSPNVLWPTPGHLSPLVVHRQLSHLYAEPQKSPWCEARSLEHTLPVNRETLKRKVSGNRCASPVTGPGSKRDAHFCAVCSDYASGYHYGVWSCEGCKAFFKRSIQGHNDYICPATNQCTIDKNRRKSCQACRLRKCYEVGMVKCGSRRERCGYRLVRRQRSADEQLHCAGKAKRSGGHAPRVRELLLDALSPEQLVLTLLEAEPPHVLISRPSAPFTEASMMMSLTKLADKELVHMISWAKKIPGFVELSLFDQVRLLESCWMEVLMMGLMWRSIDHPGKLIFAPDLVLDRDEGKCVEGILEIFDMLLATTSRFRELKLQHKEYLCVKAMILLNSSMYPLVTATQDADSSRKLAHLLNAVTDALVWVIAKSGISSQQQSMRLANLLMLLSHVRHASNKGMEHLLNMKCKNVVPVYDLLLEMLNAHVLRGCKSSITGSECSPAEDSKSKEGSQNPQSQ

Ki (Estrogen receptor [1]) [nM] | Ki (Estrogen receptor beta [2]) [nM] | SMILES | also measured
1300 | 225 | CN(CCCc1ccc(Cl)cc1)c1nc(NCCc2ccc(O)cc2)nc(N2CCN(S(=O)(=O)/C=C/c3ccccc3)CC2)n1 | 
570 | 90 | CN(CCCc1ccc(C#N)cc1)c1nc(NCCc2ccc(O)cc2)nc(N2CCNCC2)n1 | 
250 | 40 | CCC(=O)CCN1CCN(c2nc(NCCc3ccc(O)cc3)nc(N(C)CCCc3ccc(Cl)cc3)n2)CC1 | 
680 | 40 | CN(CCCc1ccccc1Cl)c1nc(NCCc2ccc(O)cc2)nc(N2CCNCC2)n1 | 
2400 | 1000 | CN1CCN(c2nc(NCCc3ccc(O)cc3)nc(OCCCc3ccccc3)n2)CC1 | 
1420 | 820 | CN(CCCC1CCCCC1)c1nc(NCCc2ccc(O)cc2)nc(N2CCNCC2)n1 | 
> 10000 | 790 | CCN(CC)C(=O)N1CCN(c2nc(NCCc3ccc(O)cc3)nc(N(C)CCCc3ccc(Cl)cc3)n2)CC1 | 
1050 | 110 | CN(CCCc1ccc(Cl)cc1)c1nc(NCCc2ccc(O)cc2)nc(N2CCN(C(=O)CCc3ccccc3)CC2)n1 | 
300 | 15 | CN(CCCc1ccc(Cl)cc1)c1nc(NCCc2ccc(O)cc2)nc(N2CCNCC2)n1 | EC50 (Estrogen receptor [3]): 180 nM; IC50 (Estrogen receptor [4]): 110 nM; IA (Estrogen receptor beta [5]): inactive; IC50 (Estrogen receptor beta [6]): 5 nM
6870 | 4200 | Oc1ccc(CCNc2nc(NC/C=C/c3ccccc3)nc(N3CCNCC3)n2)cc1 | 
1000 | 170 | CN1CCN(c2nc(NCCCc3ccccc3)nc(NC3CCc4cc(O)ccc4C3)n2)CC1 (stereo not given) | 
2370 | 1750 | Oc1ccc(CCNc2nc(NCCc3ccccc3)nc(N3CCNCC3)n2)cc1 | 
3240 | 490 | CN1CCN(c2nc(NCCCc3ccccc3)nc(NCCc3ccc(O)cc3)n2)CC1 | 
 | 35 | CN(CCCc1ccc(Cl)cc1)c1nc(NCCc2ccc(O)cc2)nc(N2CCN(Cc3cccnc3)CC2)n1 | 
60 | 15 | C[C@@H]1CN(c2nc(NCCc3ccc(O)cc3)nc(N(C)CCCc3ccc(Cl)cc3)n2)C[C@H](C)N1 | 
855 | 425 | CN(CCCc1ccc(Cl)cc1)c1nc(NCCc2ccc(O)cc2)nc(N2CCN(C(=O)Nc3ccc(Cl)cc3)CC2)n1 | 
1130 | 110 | COc1ccc(C(=O)N2CCN(c3nc(NCCc4ccc(O)cc4)nc(N(C)CCCc4ccc(Cl)cc4)n3)CC2)cc1 | 
2360 | 400 | CN(CCCc1ccc(Cl)cc1)c1nc(NCCc2ccc(O)cc2)nc(N2CCN(C(=O)N3CCOCC3)CC2)n1 | 
145 | 15 | CN1CCN(c2nc(NCCc3ccc(O)cc3)nc(N(C)CCCc3ccc(Cl)cc3)n2)CC1 | 
3000 | 270 | CN(C)C(=O)CN1CCN(c2nc(NCCc3ccc(O)cc3)nc(N(C)CCCc3ccc(Cl)cc3)n2)CC1 | 
570 | 100 | CN(CCCc1ccc(Cl)cc1)c1nc(NCCc2ccc(O)cc2)nc(N2CCN(C(=O)COc3ccccc3)CC2)n1 | 
480 | 75 | CN(CCCc1ccc(C(F)(F)F)cc1)c1nc(NCCc2ccc(O)cc2)nc(N2CCNCC2)n1 | 
 |  | Oc1ccc(CCNc2nc(SCCCc3ccc(Cl)cc3)nc(N3CCNCC3)n2)cc1 | IA (Estrogen receptor beta [7]): inactive
415 | 490 | CN1CCN(c2nc(NCCCCc3ccccc3)nc(NCCc3ccc(O)cc3)n2)CC1 | 
2280 | 105 | CN(CCCc1ccc(Cl)cc1)c1nc(NCCc2ccc(O)cc2)nc(N2C[C@@H]3C[C@H]2CN3)n1 | 
125 | 25 | CN(CCCc1ccc(Cl)cc1Cl)c1nc(NCCc2ccc(O)cc2)nc(N2CCNCC2)n1 | 

Ki (Estrogen receptor [1]) [nM] | Ki (Estrogen receptor beta [2]) [nM] | SMILES | also measured
1000 | 170 | CN(CCOc1ccc(Cl)cc1)c1nc(NCCc2ccc(O)cc2)nc(N2CCNCC2)n1 | 
395 | 15 | CN(CCCc1ccc(Cl)cc1)c1nc(NCCc2ccc(O)cc2)nc(N2CCN(CCO)CC2)n1 | EC50 (Estrogen receptor [3]): 180 nM; IC50 (Estrogen receptor [4]): 30 nM; IA (Estrogen receptor beta [7]): inactive; IC50 (Estrogen receptor beta [6]): 15 nM
 |  | CN(C[C@@H]1C[C@@H]1c1ccccc1)c1nc(NCCc2ccc(O)cc2)nc(N2CCNCC2)n1 (relative stereo) | IA (Estrogen receptor beta [7]): inactive
> 10000 | > 10000 | CN1CCN(c2nc(NCCCc3ccccc3)nc(NC3CCc4ccc(O)cc4C3)n2)CC1 (stereo not given) | 
200 | 55 | Oc1ccc(CCNc2nc(NCCCc3ccc(Cl)cc3)nc(N3CCNCC3)n2)cc1 | 
830 | 100 | CCN(CCCc1ccc(Cl)cc1)c1nc(NCCc2ccc(O)cc2)nc(N2CCNCC2)n1 | 
380 | 15 | CN(CCCc1ccc(F)cc1)c1nc(NCCc2ccc(O)cc2)nc(N2CCNCC2)n1 | EC50 (Estrogen receptor [3]): 200 nM; IC50 (Estrogen receptor [4]): 240 nM; IA (Estrogen receptor beta [7]): inactive; IC50 (Estrogen receptor beta [6]): 15 nM
> 10000 | 600 | CC(C)S(=O)(=O)N1CCN(c2nc(NCCc3ccc(O)cc3)nc(N(C)CCCc3ccc(Cl)cc3)n2)CC1 | 
1450 | 490 | CN(CCCc1ccc(Cl)cc1)c1nc(NCCc2ccc(O)cc2)nc(N2CCN(S(=O)(=O)Cc3ccccc3)CC2)n1 | 
2040 | 200 | CN(CCCc1ccc(Cl)cc1)c1nc(NCCc2ccc(O)cc2)nc(N2CCN(CC(=O)c3ccccc3)CC2)n1 | 
270 | 50 | CN1CCN(c2nc(NCCc3ccc(O)cc3)nc(SCCCc3ccccc3)n2)CC1 | 
> 10000 | > 10000 | CN1CCN(c2nc(NCCc3ccc(O)cc3)nc(NC3CCc4ccccc43)n2)CC1 (stereo not given) | 
200 | 20 | CN(CCCc1ccc(F)c(F)c1)c1nc(NCCc2ccc(O)cc2)nc(N2CCNCC2)n1 | 
1020 | 210 | CN(CCCc1ccc(Cl)cc1)c1nc(NCCc2ccc(O)cc2)nc(N2CCN(CC(=O)C(C)(C)C)CC2)n1 | 
> 10000 | 4250 | CN1CCN(c2nc(NCCCc3ccccc3)nc(NCCc3cccc(O)c3)n2)CC1 | 
 | 25 | Cc1nc(CN2CCN(c3nc(NCCc4ccc(O)cc4)nc(N(C)CCCc4ccc(Cl)cc4)n3)CC2)cs1 | IA (Estrogen receptor beta [7]): inactive; IC50 (Estrogen receptor beta [6]): 5 nM
360 | 30 | C=CCN1CCN(c2nc(NCCc3ccc(O)cc3)nc(N(C)CCCc3ccc(Cl)cc3)n2)CC1 | 
> 10000 | > 10000 | CN1CCN(c2nc(NCCCc3ccccc3)nc(N3CCc4cc(O)ccc4C3)n2)CC1 | 
1140 | 100 | Cc1ccc(CCCN(C)c2nc(NCCc3ccc(O)cc3)nc(N3CCNCC3)n2)cc1 | 
6320 | 890 | CN(CCCc1ccc(Cl)cc1)c1nc(NCCc2ccc(O)cc2)nc(N2CCN(c3ccccc3)CC2)n1 | 
1380 | 200 | Oc1ccc(CCNc2nc(NCCCc3ccccc3)nc(N3CCNCC3)n2)cc1 | 
 |  | O=C(c1ccc(OCCN2CCCCC2)cc1)c1c(-c2ccc(O)cc2)sc2cc(O)ccc12 | IA (Estrogen receptor beta [8]): inactive
5130 | 3690 | CN1CCN(c2nc(NCCCc3ccccc3)nc(NCc3ccc(O)cc3)n2)CC1 | 
> 10000 | > 10000 | CN1CCN(c2nc(NCCCc3ccccc3)nc(N3CCCC(c4ccc(O)cc4)C3)n2)CC1 (stereo not given) | 
 | 50 | CN(CCCc1ccc(Cl)cc1)c1nc(NCCc2ccc(O)cc2)nc(N2CCN(Cc3ccccn3)CC2)n1 | 

SMILES | Ki (Estrogen receptor [1]) [nM] | Ki (Estrogen receptor beta [2]) [nM] | also measured
CN(CCCc1ccc(Cl)cc1)c1nc(NCCc2ccc(O)cc2)nc(N2CCN(C3CCCC3)CC2)n1 | 180 | 40 | 
CN(CCCc1ccc2c(c1)OCO2)c1nc(NCCc2ccc(O)cc2)nc(N2CCNCC2)n1 | 560 | 30 | 
CN(CCCc1ccc(Cl)cc1)c1nc(NCCc2ccc(O)cc2)nc(N2CCN(Cc3ccccc3)CC2)n1 | 120 | 8 | 
Oc1ccc(CCNc2nc(SCCOc3ccc(Cl)cc3)nc(N3CCNCC3)n2)cc1 | 570 | 90 | 
CN(CCCc1ccc(Cl)cc1)c1nc(NCCc2ccc(O)cc2)nc(N2CCN(Cc3ccncc3)CC2)n1 | 810 | 115 | 
